Measured values: US9283160B2, “Stabilization of cosmetic compositions” (BASF SE, priority 2009, dated 2016)

Assay: Photodegradation of UV absorber combinations, plate-test (recovery after UV irradiation)
Type: physicochemical
Conditions: 0-50 MED UV; for Photostabilization of components (e) and (f) after irradiation (summary of Table 5): in presence of piperazine bi-aminobenzophenone
Procedure: For the determination of photodegradation the so-called “plate-test” is employed: • 2 μl/cm^2 of the formulations are spread on quartz plates (sand-blasted surface of 2.8 cm^2), and rinsed off the plates after 0, 5, 10, 20, and 50 MED of UV irradiation using an Atlas CPS+ solar simulator.
The substances tagged with an asterix (*) are those the recovery percentages refer to. The percentage of component (a) refers to the active.
The experimental error in terms of the standard deviation is in the range of ±3%.

## CCCCC(CC)COC(=O)c1ccc(Nc2nc(Nc3ccc(C(=O)NC(C)(C)C)cc3)nc(Nc3ccc(C(=O)OCC(CC)CCCC)cc3)n2)cc1 (stereo not shown) [di-octyl butamido triazone, Benzoic acid, 4,4′-[[6-[[4-[[(1,1-dimethylethyl)amino]carbonyl]-phenyl]amino]1,3,5-triazine-2,4-diyl]diimino]bis-, bis(2-ethyl-hexyl)ester]
  Photostabilization of components (e) and (f) after irradiation (summary of Table 5): photostabilized in the presence of piperazine bi-aminobenzophenone

## CCCCC(CC)COC(=O)C=Cc1ccc(OC)cc1 (stereo not shown) [ethylhexyl methoxycinnamate, 2-ethylhexyl 4-methoxycinnamate]
Combination with piperazine bi-aminobenzophenone, bis-ethylhexyloxyphenol methoxyphenyl triazine added
  Photostabilization of component (b) after irradiation (summary of Table 4): can be stabilized by addition of bis-ethylhexyloxyphenol methoxyphenyl triazine
Combination with piperazine bi-aminobenzophenone, octocrylene added
  Photostabilization of component (b) after irradiation (summary of Table 3): can be stabilized by addition of octocrylene

## CCCCC(CC)COC(=O)c1ccc(Nc2nc(Nc3ccc(C(=O)OCC(CC)CCCC)cc3)nc(Nc3ccc(C(=O)OCC(CC)CCCC)cc3)n2)cc1 (stereo not shown) [ethylhexyl triazone, Ethylhexyl triazone]
  Photostabilization of components (e) and (f) after irradiation (summary of Table 5): photostabilized in the presence of piperazine bi-aminobenzophenone
